The values that follow come from patent US20090215783A1, “COMPOSITION FOR INDUCTION OR INHIBITION OF STEM CELL DIFFERENTIATION” (CHOONGWAE PHARMA CORPORATION, priority 2006, published 2009).

For assay [1], the system named is β-catenin/TCF transcription. Nature of the assay: TopFlash reporter gene assay in SW480 cells. The format is cell-based. The conditions noted are these: Homo sapiens; SW480 cells transfected with β-catenin/TCF luciferase construct; 24 hours treatment; dual luciferase assay; read-out: IC50, inhibition of β-catenin/TCF reporter gene construct. As to the method:
FIG. 2. Compound A (Serial No. 111 in Table 2) inhibits β-catenin/TCF transcription. […] SW480 cells (10^5) were transfected with β-catenin/TCF luciferase construct. Cells were treated with Compound A (1-50 μM). 24 hours after the treatment lysates were prepared and subjected to dual luciferase assay.
FIG. 3. Compound B (Serial No. 10 in Table 2) inhibits β-catenin/TCF transcription. […] SW480 cells ([…]) were transfected with β-catenin/TCF luciferase construct. Cells were treated with Compound B (1-50 μM). 24 hours after treatment lysates were prepared and subjected to dual luciferase assay.
SW480 cells were transfected using Superfect™ transfection reagent (Qiagen, 301307). Cells were trypsinized briefly 1 day before transfection and plated on 6 well plate (5×10^5 cells/well) so that they were 50-80% confluent on the day of transfection.
Four microgram (TOPFlash) and one microgram (pRL-null) of DNAs were diluted in […] of serum-free medium, and 30 μl of Superfect™ transfection reagent was added. The DNA-Superfect mixture was incubated at room temperature for 15 min, and then, 1 ml of 10% FBS DMEM was added to this complex for an additional 3 hours of incubation. While complexes were forming, cells were washed with PBS twice without antibiotics.
The DNA-Superfect™ transfection reagent complexes were applied to the cells before incubating at 37° C. at 5% CO2 for 3 hours. […]

For assay [2], the system named is Mouse embryonic stem (ES) cells, TC1. Nature of the assay: Cardiomyogenesis modulating activity assay (alpha-MHC promoter EGFP, embryoid bodies, FACS/fluorescence microscopy). In kind it is cell-based. The conditions noted are these: for Cardiomyogenesis: fold change of EGFP expression level compared with DMSO control: embryoid bodies treated for 5 days, FACS. The method in brief:
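Mouse TC1 ES cells carrying an alpha-MHC promoter-EGFP reporter were formed into embryoid bodies (~600 cells, 2 days hanging drop, 2 days suspension), plated, then exposed to compounds (final 0.05% DMSO) for 5 days. Cardiomyogenesis assessed by EGFP via FACS after trypsin dissociation, fluorescence microscopy, and daily counts of beating EBs.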

Assay [3] has as its system human bone marrow derived-mesenchymal stem cells (hBMMSC). Briefly: Osteogenesis modulating activity assay by test compound alone (ALP activity). The format is cell-based. The method in brief:
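hBMMSC from normal subjects were treated with compound at 20 μM final (0.01% DMSO) at 37° C, 5% CO2, with medium and compound renewed every two days. Alkaline phosphatase activity in cell lysates was measured colorimetrically after six to seven days.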

The test system is the same in assay [4]. Nature of the assay: Osteogenesis modulating activity with osteogenic induction cocktails (ALP activity, mineralization). The format is cell-based. To be noted: 20 μM, co-treated with osteogenic induction cocktails. As to the method:
Cell culture: Human bone marrow derived-mesenchymal stem cells (hBMMSC) were isolated from normal subjects.
Osteogenesis modulating activity of test compounds with induction media: hBMMSC were culture with culture media containing osteogenic induction cocktails (OIC, 0.1 μM dexamethasone, 50 μM ascorbate-2-phosphate, 10 mM b-glycerophosphate). Four to five days after incubation, Alkaline phosphatase (ALP) activity of cell lysates were measured by colorimetry. For the determination of mineralization within the cells, Von Kossa staining or Alizarin Red S assay was performed 10-14 days after incubation.

The subject of another assay is hBMMSC. Briefly: Cell proliferation assay (CellTiter 96) in hBMMSC. The format is cell-based, human. To be noted: Homo sapiens, treated alone, read-out: cell proliferation inhibited. On the procedure:
Cell proliferation assay: To investigate the cytotoxicity of the test compounds for hBMMSC, hBMMSC were exposed to the test compounds for 6-7 days at the same condition above (method b and c). Cell proliferation was assessed using CellTiter 96 Aqueous One Solution (Promega, #G3581). Absorbance at 490 nm of each well was determined with a microplate reader (Molecular Device) and % growth inhibition was calculated compared with control.

Assay [5] relates to MyoD and Myf5 protein expression in C2C12 cells. Briefly: Expression of MyoD and Myf5 (Western immunoblot) in C2C12 cells. To be noted: for expression of Myf5 compared with DMSO control, dose dependence: 5 and 10 μM; for Myf-5 expression on co-treatment with Wnt1 conditioned medium: co-treated with Wnt1. The format is cell-based, Murine. As to the method:
(§1) a. Cell culture: Murine C2C12 myoblastic cell line (satellite cells from thigh muscle) purchased from American Tissue Type Collection (ATCC) was maintained in exponential phase of growth using 10% FBS/DMEM with Glutamax designed as GM (growth medium) supplied with antibiotic solution (Penicillin and Streptomycin) in a controlled humidified air atmosphere supplied with 5% CO2, at 37° C. in a multiwell or tissue culture Petri dishes (Corning-Costar Inc U.S.A.).
(§2) b. Induction of differentiation and test compound treatment: Every other day the cells were washed twice with phosphate buffered saline (PBS) and medium was changed until they reached 100% confluence. Confluent cells (myoblasts of the same cell density fully covering surface dish) were then guided to post mitotic status, and differentiation and fusion were initiated by replacing GM with 2% (v/v) horse serum HS/DMEM designed as DM (differentiating medium). In the above mentioned conditions C2C12 myoblasts easily and fully differentiate into myotubes, therefore we could follow up modifications of differentiation process during 5 subsequent days. During the study freshly prepared media without or with the experimental factors were changed every 24 hours. Test compounds were dissolved in DMSO and diluted with culture medium. Test compounds (if not specified, 10 μM was used, final DMSO 0.1% v/v) or DMSO (0.1% v/v) were added to the medium.
c. Expression of MyoD and Myf5: Cells were lysed and protein expression levels were analyzed by Western-immunoblot analysis, as described in the literature (Verma et al., British J Pharmacol, 2004, 143, 106-13). Equal amount of protein samples were resolved by sodium dodecyl sulphate poly-acrylamide gel electrophoresis (SDS-PAGE) and transferred to nitrocellulose membranes. The membranes were blocked with 5% bovine serum albumin (BSA) and incubated with the indicated primary antibodies for 12˜h: polyclonal C20 antion MyoD (from Santa-Cruz, Biotechnology, Santa Cruz, Calif.) diluted 1/400, polyclonal anti-Myf-5 directed against the COOH-terminal portion of the protein. After several washes in PBS, membranes were incubated with chemiluminescence reagents.

For another assay, the system named is C2C12 myoblasts. Nature of the assay: Myogenesis (myotube formation) in C2C12 myoblast cells. In kind it is cell-based, Murine. The conditions noted are these: C2C12 cells grown in GM. On the procedure: as §1
as §2, with “Confluent cells (myoblasts of the same cell density fully covering surface dish) were then guided to post mitotic status, and differentiation and fusion were initiated by replacing GM with 2% (v/v) horse serum HS/DMEM designed as DM (differentiating medium).” left out

Regarding `CN1CC(=S)N2[C@H](Cc3ccc(O)cc3)C(=O)N(Cc3cccc4ccccc34)C[C@H]2N1C(=O)NCc1ccccc1` [#111], the IC50 in assay [1] came out at 1.46 µM. In addition, the “Cardiomyogenesis: fold change of EGFP expression level compared with DMSO control” value (from here on “Cardiomyogenesis: fold change”) in assay [2] came out at 0.10 fold.
In the case of `CN(C)c1c(Cl)cccc1CN1C[C@H]2N(C(=O)CN(C)N2C(=O)NCc2ccccc2)[C@@H](Cc2ccc(O)cc2)C1=O` [#10], the IC50 in assay [1] worked out at 6.98 µM. Also, the “cellular alkaline phosphatase activity” value in assay [3] (20 μM, hBMMSC) was “strongly inhibited”. In assay [3] (20 μM, treated alone to hBMMSC), this molecule registered an ALP level reduced of 77%. In addition, in assay [3] (Homo sapiens, 168 h, hBMMSC, 20 μM test compound alone, six to seven days, read-out: Osteogenesis: fold change of ALP activity compared with DMSO control), the fold induction at 20 µM was determined as 0.23. In assay [4], the “ALP level reduced compared with vehicle control group” value was 80%. The inhibition at 20 µM with hBMMSC was determined as 51%. Also, the “expression of fluorescence, ratio Compound : DMSO control (control = 1)” value in assay [2] (10 μM for 5 days, mouse embryonic stem cells) came to 0.26. The “Cardiomyogenesis: fold change” value in assay [2] worked out at 0.26 fold. Also, in assay [5], the “Myf-5 expression, compound without Wnt1” value is listed as “reduced”; the “expression of Myf5 compared with DMSO control, dose dependence” value is listed as “dose-dependently decreased”; the “Myf-5 expression on co-treatment with Wnt1 conditioned medium” value is reported as “abolished Myf-5 enhancing activity of Wnt1”. For the same molecule, the “Myf5 expression on co-treatment of CBP” value in assay [5] (co-treatment of CBP) was “not changed”. Besides, the “Myf5 expression on co-treatment of p300” value in assay [5] (co-treatment of p300) is reported as “rescues the decrease of Myf5 expression”.
On to `O=C1[C@@H](Cc2ccc(O)cc2)N2C(=S)CCN(C(=O)NCc3ccccc3)[C@@H]2CN1Cc1cccc2ccccc12` [#112], for which the “Cardiomyogenesis: fold change” value in assay [2] was found to be 0.95 fold. The “myotube formation in growth medium (GM)” value in the assay with C2C12 myoblasts was “extensive myotube formation”. In assay [5], the “Myf5 protein expression level” value is “significantly increased”; the “MyoD protein expression level” value is “significantly increased”; the “expression of Myf5 compared with DMSO control, dose dependence” value is “dose-dependently increased”; the “Myf-5 expression on co-treatment with Wnt1 conditioned medium” value is “further enhanced”.
